# Reference: US20140378551A1, “Composition for the Prophylactic Treatment of Neuropathic Pain” (Universite d'Auvergne, priority 2011, published 2014)
# Columns and labels:
# [1] = system: neuropathic pain induced by spinal nerve ligation among rats; assay: Paw pressure test (Randall & Selitto): mechanical hyperalgesia, spinal nerve ligation model; format: in vivo, rat
# Experimental: The effects of the prolonged and preventive administration of memantine were first of all studied among rats. The model used was that of the ligation of the spinal nerve L5 (herein after called SNL for spinal nerve ligation) among rats. The emergence of neuropathic pain is assessed according to the following criteria: • the behavior of the rat following the spinal nerve ligation (SNL), • cognition, and • molecular events, including the expression of phosphorylated tyrosine 1472 of the NR2B sub-unit of the NMDA receptor at the spinal level.
# The study was based on the comparison of the two main groups of animals. The first group was a control group. The rats of the control group, designated as “Sham” in the graphs, underwent no operation. They are used to assess the role of the injected substances on the individual, without there being any emergence of neuropathic pain.
# Two sub-groups were set up in this group: • one sub-group treated with the vehicle which is a saline solution of NaCl 0.9% by mass, in a dose of 1 mL/kg/rat/day, by intraperitoneal injection; and • one sub-group treated with memantine in a dose of 20 mg/kg/rat/day, by intraperitoneal injection.
# The second group of animals comprises rats having to undergo to spinal nerve ligation and therefore likely to develop neuropathic pain. This group is referred to in the graphs by the term SNL. As in the control group, this group is divided into two sub-groups: • one sub-group treated with the vehicle, which is a saline solution of NaCl 0.9% by mass, in a dose of 1 mL/kg/rat/day, by intraperitoneal injection; and • one sub-group treated by memantine in a dose of 20 mg/kg/rat/day, by intraperitoneal injection. […]
# 7. Seven to 14 days after the surgery, the neuropathic, hyperalgesic or allodynic rats are selected according to their response to nociceptive and non-nociceptive stimulation assessed through appropriate tests (see paragraph 6.1.2). […]
# [2] = system: post-operative neuropathic pain; assay: Phase 2 clinical trial, pain self-evaluation after mastectomy and axillary dissection; format: in vivo, human; conditions: follow-up after operation, self-evaluation scale 1 to 10; preliminary results
# Experimental: A phase 2 clinical trial on the development and evaluation of neuropathic pain was conducted among patients having to undergo mastectomy and axillary dissection. The patients were separated randomly into two groups: • a control group who were to receive lactose as a placebo; and • a group treated by memantine hydrochloride (EBIXA®).
# The clinical trial protocol is described in detail in the form referenced NTC014536314 (http://clinicaltrials.gov). […]
# The patient's pain was evaluated by asking them to assess their own pain on a numerical scale ranging from 1 to 10 (10 being the maximum stage of pain) for the two weeks following the operation and for three months following the operation. […] The development of neuropathic pain is also evaluated by the DN4 questionnaire on neuropathic pain, and the Questionnaire sur la Douleur de Saint-Antoine (QDSA) or “Saint-Antoine pain questionnaire”. […]
# FIG. 7 is a graph showing the preliminary results obtained on the first […] having taken part in these clinical trials (six patients had received the placebo composition and seven patients had received the memantine-hydrochloride-based composition), their pain being evaluated by the method of self-evaluation on a scale of 1 to 10. […]
smiles,measurement,setting,value
"CC12CC3CC(C)(C1)CC(N)(C3)C2 [memantine, 1-amino-3,5-dimethyl-adamantane]",vocalization threshold (mechanical hyperalgesia),"[1]; SNL rats, 20 mg/kg/rat/day i.p., four days before and three days after the operation",vocalization threshold very close to that of non-operated rats
same,vocalization threshold (mechanical hyperalgesia),"[1]; SNL rats, 20 mg/kg/rat/day i.p., post-operative injection only (three days after operation)",not enough to restore a normal vocalization threshold
same,vocalization threshold (mechanical hyperalgesia),"[1]; non-operated (Sham) rats, 20 mg/kg/rat/day intraperitoneal, versus vehicle",no influence whatsoever on the behavior of non-operated rats
same,level of pain versus placebo,[2],patients having received the placebo have a higher level of pain than patients having received memantine
